pIC50: −log10 of the molar value. A value given as a limit tells only on which side of the number the result lay.

The test system of the test is KRas G12D-mediated phosphorylation of ERK. The test can be described thus: Inhibition of KRas G12D-mediated phosphorylation of ERK in AGS cells. Type of test: cell-based. The conditions noted are these: Homo sapiens; AGS cells expressing G12D, 3 hours, phospho-ERK normalized to GAPDH. In a few lines: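 Fixed, methanol-permeabilized; phospho-ERK (Thr202/Tyr204) by in-cell immunofluorescence normalized to GAPDH. Percent of DMSO control, IC50 by 4-parameter fit.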

As to `CO[C@@H]1C[C@@H](COc2nc(N3C[C@H]4CC[C@@H](C3)N4)c3cnc(-c4cc(O)cc5ccccc45)c(F)c3n2)N(C)C1` [Example 42, 4-(4-((1R,5S)-3,8-diazabicyclo[3.2.1]octan-3-yl)-8-fluoro-2-(((2S,4R)-4-methoxy-1-methylpyrrolidin-2-yl)methoxy)pyrido[4,3-d]pyrimidin-7-yl)naphthalen-2-ol], the pIC50 (in general, the IC50 on a negative log10 scale, so that one unit is a factor of ten) was 6.20. Under `CN1CCC[C@H]1COc1nc(N2C[C@H]3CC[C@@H](C2)N3)c2cnc(-c3cc(O)cc4ccccc34)c(Cl)c2n1` [Example 191, 4-(4-((1R,5S)-3,8-diazabicyclo[3.2.1]octan-3-yl)-8-chloro-2-(((S)-1-methylpyrrolidin-2-yl)methoxy)pyrido[4,3-d]pyrimidin-7-yl)naphthalen-2-ol] stands 5.30. In the case of `CC(C)n1ccnc1CCOc1nc(N2C[C@H]3CC[C@@H](C2)N3)c2cnc(-c3cc(O)cc4ccccc34)c(F)c2n1` [Example 91, 4-(4-((1R,5S)-3,8-diazabicyclo[3.2.1]octan-3-yl)-8-fluoro-2-(2-(1-isopropyl-1H-imidazol-2-yl)ethoxy)pyrido[4,3-d]pyrimidin-7-yl)naphthalen-2-ol] it was 5.26. In turn, `CC(C)N1CCC[C@H]1COc1nc(N2C[C@H]3CC[C@@H](C2)N3)c2cnc(-c3cccc4cccc(Cl)c34)c(F)c2n1` [Example 29, 4-((R,5S)-3,8-diazabicyclo[3.2.1]octan-3-yl)-7-(8-chloronaphthalen-1-yl)-8-fluoro-2-(((S)-1-isopropylpyrrolidin-2-yl)methoxy)pyrido[4,3-d]pyrimidine] gave a pIC50 of 4.87. As to `CN(C)c1ccccc1-c1ncc2c(N3C[C@H]4CC[C@@H](C3)N4)nc(OCC34CCCN3CCC4)nc2c1F` [Example 296, 2-(4-((1R,5S)-3,8-diazabicyclo[3.2.1]octan-3-yl)-8-fluoro-2-((hexahydro-1H-pyrrolizin-7a-yl)methoxy)pyrido[4,3-d]pyrimidin-7-yl)-N,N-dimethylaniline], the pIC50 was 5.07.

`Cn1ccnc1COc1nc(N2C[C@H]3CC[C@@H](C2)N3)c2cnc(-c3cc(O)cc4ccccc34)c(F)c2n1` [Example 104, 4-(4-((1R,5S)-3,8-diazabicyclo[3.2.1]octan-3-yl)-8-fluoro-2-((1-methyl-1H-imidazol-2-yl)methoxy)pyrido[4,3-d]pyrimidin-7-yl)naphthalen-2-ol] had a pIC50 below 4.78. In the case of `CN1CCC[C@H]1COc1nc(N2CC3CCC(CO)(C2)N3)c2cnc(-c3cc(O)cc4ccccc34)c(F)c2n1` (stereo partly drawn) [Example 215, 4-(8-fluoro-4-(1-(hydroxymethyl)-3,8-diazabicyclo[3.2.1]octan-3-yl)-2-(((S)-1-methylpyrrolidin-2-yl)methoxy)pyrido[4,3-d]pyrimidin-7-yl)naphthalen-2-ol bis(2,2,2-trifluoroacetate)] it was below 4.78; in that of `CN1CCC[C@H]1COc1nc(N2CC3C[C@@H](O)C(C2)N3)c2cnc(-c3cc(O)cc4ccccc34)c(F)c2n1` (stereo partly drawn) [Example 31, 3-(8-fluoro-7-(3-hydroxynaphthalen-1-yl)-2-(((S)-1-methylpyrrolidin-2-yl)methoxy)pyrido[4,3-d]pyrimidin-4-yl)-3,8-diazabicyclo[3.2.1]octan-6-ol], 5.62; in that of `Fc1c(-c2cccc3cccc(C4CC4)c23)ncc2c(N3C[C@H]4CC[C@@H](C3)N4)nc(OCC34CCCN3CCC4)nc12` [Example 335, 4-((1R,5S)-3,8-diazabicyclo[3.2.1]octan-3-yl)-7-(8-cyclopropylnaphthalen-1-yl)-8-fluoro-2-((tetrahydro-1H-pyrrolizin-7a(5H)-yl)methoxy)pyrido[4,3-d]pyrimidine], 4.98. In the case of `Oc1ccc(CC(F)(F)F)c(-c2ncc3c(N4C[C@H]5CC[C@@H](C4)N5)nc(OC[C@@]45CCCN4C[C@H](F)C5)nc3c2F)c1` [Example 424, 3-(4-((1R,5S)-3,8-diazabicyclo[3.2.1]octan-3-yl)-8-fluoro-2-(((2R,7aS)-2-fluorohexahydro-1H-pyrrolizin-7a-yl)methoxy)pyrido[4,3-d]pyrimidin-7-yl)-4-(2,2,2-trifluoroethyl)phenol] it was 6.17.

For the origin of these results see patent US11453683B1, “KRas G12D inhibitors” (Mirati Therapeutics, Inc., priority 2019, dated 2022).
